#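 Grown in 96-well plates, cells were treated for 48 hours with each compound at five concentrations. Insufficient inhibition: endpoint recorded as highest concentration tested. GI50 = concentration required for 50% inhibition of growth.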 Active and inactive are the calls of the source. No stated cut-off is given here; in the data, active = GI50 up to about 1.1 µM and inactive = higher.
# Legend:
# Assay in all cases: NCI tumour cell line growth inhibition, 48 h
# Hs-578T = test system: Hs-578T
# SR = test system: SR
# T47D = test system: T47D
# KM12 = test system: KM12
# ACHN = test system: ACHN
# UACC-257 = test system: UACC-257
# UACC-62 = test system: UACC-62
# KM-20L2 = test system: KM-20L2
# MCF7 = test system: MCF7
# LOX IMVI = test system: LOX IMVI
# HOP-92 = test system: HOP-92
# SK-MEL-5 = test system: SK-MEL-5
# OVCAR-4 = test system: OVCAR-4
# SN12C = test system: SN12C
# HCT-116 = test system: HCT-116
# 786-0 = test system: 786-0
# NCI-H460 = test system: NCI-H460
# DU-145 = test system: DU-145
# NCI-H226 = test system: NCI-H226
# OVCAR-3 = test system: OVCAR-3
# HOP-62 = test system: HOP-62
# CAKI-1 = test system: CAKI-1
# MOLT-4 = test system: MOLT-4
# OVCAR-5 = test system: OVCAR-5
# SF-268 = test system: SF-268
# SNB-75 = test system: SNB-75
# BT-549 = test system: BT-549
# SW-620 = test system: SW-620
# DMS-114 = test system: DMS-114
# MDA-MB-435 = test system: MDA-MB-435
# M14 = test system: M14
# SF-295 = test system: SF-295
# SNB-19 = test system: SNB-19
# RXF 393 = test system: RXF 393
# PC-3 = test system: PC-3
# U-251 = test system: U-251
# COLO 205 = test system: COLO 205
# EKVX = test system: EKVX
# MDA-MB-231 = test system: MDA-MB-231
# M19-MEL = test system: M19-MEL
# RPMI-8226 = test system: RPMI-8226
# HT-29 = test system: HT-29
# HOP-18 = test system: HOP-18
# A549 = test system: A549
# UO-31 = test system: UO-31
# LXFL 529 = test system: LXFL 529
# IGROV-1 = test system: IGROV-1
# TK-10 = test system: TK-10
# SK-OV-3 = test system: SK-OV-3
# MDA-N = test system: MDA-N
# SF-539 = test system: SF-539
# K562 = test system: K562
# Malme-3M = test system: Malme-3M
# A498 = test system: A498
# HCT-15 = test system: HCT-15
# OVCAR-8 = test system: OVCAR-8
# NCI-H522 = test system: NCI-H522
# NCI/ADR-RES = test system: NCI/ADR-RES
# SNB-78 = test system: SNB-78
# SK-MEL-2 = test system: SK-MEL-2
# DLD-1 = test system: DLD-1
# SK-MEL-28 = test system: SK-MEL-28
# HCC 2998 = test system: HCC 2998
# NCI-H23 = test system: NCI-H23
# HL-60 = test system: HL-60
# CCRF-CEM = test system: CCRF-CEM
# DMS-273 = test system: DMS-273
smiles,measurement,setting,value
Nc1ccccc1C(=O)NC(=O)Nc1ccc(Oc2ncc(Br)cn2)c(Cl)c1,GI50,Hs-578T,< 10 nM (active)
same,GI50,SR,< 10 nM (active)
same,GI50,T47D,51800 nM (inactive)
same,GI50,KM12,< 10 nM (active)
same,GI50,ACHN,61.4 nM (active)
same,GI50,UACC-257,< 25.9 nM (active)
same,GI50,UACC-62,< 10 nM (active)
same,GI50,KM-20L2,< 10 nM (active)
same,GI50,MCF7,< 10 nM (active)
same,GI50,LOX IMVI,< 10 nM (active)
same,GI50,HOP-92,217 nM (active)
same,GI50,SK-MEL-5,< 10 nM (active)
same,GI50,OVCAR-4,698 nM (active)
same,GI50,SN12C,13.3 nM (active)
same,GI50,HCT-116,< 10 nM (active)
same,GI50,786-0,< 10 nM (active)
same,GI50,NCI-H460,< 10 nM (active)
same,GI50,DU-145,< 12.3 nM (active)
same,GI50,NCI-H226,47.2 nM (active)
same,GI50,OVCAR-3,< 10 nM (active)
same,GI50,HOP-62,10.9 nM (active)
same,GI50,CAKI-1,< 10 nM (active)
same,GI50,MOLT-4,< 10 nM (active)
same,GI50,OVCAR-5,438 nM (active)
same,GI50,SF-268,< 10 nM (active)
same,GI50,SNB-75,< 10 nM (active)
same,GI50,BT-549,2480 nM (inactive)
same,GI50,SW-620,< 10 nM (active)
same,GI50,DMS-114,< 10 nM (active)
same,GI50,MDA-MB-435,< 10 nM (active)
same,GI50,M14,15.2 nM (active)
same,GI50,SF-295,< 10 nM (active)
same,GI50,SNB-19,24.7 nM (active)
same,GI50,RXF 393,26.1 nM (active)
same,GI50,PC-3,< 10 nM (active)
same,GI50,U-251,< 10 nM (active)
same,GI50,COLO 205,< 10 nM (active)
same,GI50,EKVX,247 nM (active)
same,GI50,MDA-MB-231,14.5 nM (active)
same,GI50,M19-MEL,< 10 nM (active)
same,GI50,RPMI-8226,18.2 nM (active)
same,GI50,HT-29,< 10 nM (active)
same,GI50,HOP-18,13000 nM (inactive)
same,GI50,A549,< 10 nM (active)
same,GI50,UO-31,14 nM (active)
same,GI50,LXFL 529,< 10 nM (active)
same,GI50,IGROV-1,< 11.8 nM (active)
same,GI50,TK-10,27.4 nM (active)
same,GI50,SK-OV-3,< 10 nM (active)
same,GI50,MDA-N,< 10 nM (active)
same,GI50,SF-539,< 10 nM (active)
same,GI50,K562,< 10 nM (active)
same,GI50,Malme-3M,< 10 nM (active)
same,GI50,A498,< 10 nM (active)
same,GI50,HCT-15,< 10 nM
same,GI50,OVCAR-8,11.9 nM (active)
same,GI50,NCI-H522,< 10 nM (active)
same,GI50,NCI/ADR-RES,< 10 nM (active)
same,GI50,SNB-78,< 120 nM (active)
same,GI50,SK-MEL-2,< 92.9 nM (active)
same,GI50,DLD-1,< 10 nM (active)
same,GI50,SK-MEL-28,< 10 nM (active)
same,GI50,HCC 2998,11.6 nM (active)
same,GI50,NCI-H23,10.8 nM (active)
same,GI50,HL-60,< 10 nM (active)
CS(=O)(=O)N(CCC#N)c1ccc(/C=N/NC(=O)CC(=O)Nc2cccc(Cl)c2)cc1,GI50,KM12,> 100000 nM (inactive)
same,GI50,ACHN,> 100000 nM (inactive)
same,GI50,UACC-257,> 100000 nM (inactive)
same,GI50,UACC-62,> 100000 nM (inactive)
same,GI50,KM-20L2,> 100000 nM (inactive)
same,GI50,LOX IMVI,> 100000 nM (inactive)
same,GI50,SK-MEL-5,> 100000 nM (inactive)
same,GI50,OVCAR-4,> 100000 nM (inactive)
same,GI50,SN12C,> 100000 nM (inactive)
same,GI50,HCT-116,> 100000 nM (inactive)
same,GI50,786-0,> 100000 nM (inactive)
same,GI50,NCI-H460,> 100000 nM (inactive)
same,GI50,NCI-H226,> 100000 nM (inactive)
same,GI50,OVCAR-3,> 100000 nM (inactive)
same,GI50,HOP-62,> 100000 nM (inactive)
same,GI50,CAKI-1,> 100000 nM (inactive)
same,GI50,MOLT-4,> 100000 nM (inactive)
same,GI50,OVCAR-5,> 100000 nM (inactive)
same,GI50,SF-268,> 100000 nM (inactive)
same,GI50,SNB-75,> 100000 nM (inactive)
same,GI50,SW-620,> 100000 nM (inactive)
same,GI50,DMS-114,> 100000 nM (inactive)
same,GI50,M14,> 100000 nM (inactive)
same,GI50,SF-295,> 100000 nM (inactive)
same,GI50,SNB-19,> 100000 nM (inactive)
same,GI50,RXF 393,> 100000 nM (inactive)
same,GI50,U-251,> 100000 nM (inactive)
same,GI50,COLO 205,> 100000 nM (inactive)
same,GI50,EKVX,> 100000 nM (inactive)
same,GI50,M19-MEL,> 100000 nM (inactive)
same,GI50,RPMI-8226,> 100000 nM (inactive)
same,GI50,HT-29,> 100000 nM (inactive)
same,GI50,HOP-18,> 100000 nM (inactive)
same,GI50,A549,> 100000 nM (inactive)
same,GI50,UO-31,> 100000 nM (inactive)
same,GI50,LXFL 529,> 100000 nM (inactive)
same,GI50,CCRF-CEM,> 100000 nM (inactive)
same,GI50,IGROV-1,> 100000 nM (inactive)
same,GI50,TK-10,> 100000 nM (inactive)
same,GI50,SK-OV-3,> 100000 nM (inactive)
same,GI50,DMS-273,> 100000 nM (inactive)
same,GI50,SF-539,> 100000 nM (inactive)
same,GI50,K562,> 100000 nM (inactive)
same,GI50,Malme-3M,> 100000 nM (inactive)
same,GI50,A498,> 100000 nM (inactive)
same,GI50,HCT-15,> 100000 nM
same,GI50,OVCAR-8,> 100000 nM (inactive)
same,GI50,NCI-H522,> 100000 nM (inactive)
same,GI50,SNB-78,> 100000 nM (inactive)
same,GI50,SK-MEL-2,> 100000 nM (inactive)
same,GI50,DLD-1,> 100000 nM (inactive)
same,GI50,SK-MEL-28,> 100000 nM (inactive)
same,GI50,HCC 2998,> 100000 nM (inactive)
same,GI50,NCI-H23,> 100000 nM (inactive)

# Reference: ChEMBL document CHEMBL1201862, “PubChem BioAssay data set” (2004)
